This passage reports MIC and IC50 results from patent publication US9663488B2, “Metalloenzyme inhibitor compounds” (Viamet Pharmaceuticals, Inc., priority 2013, dated 2017).

SMILES strings stand for the structures. pIC50: −log10 of the molar value. Counter-ions that a name gives are not always drawn.

The first assay deals with Pseudomonas aeruginosa (ATCC 27853). Nature of the assay: Minimum Inhibitory Concentration (MIC), CLSI broth microdilution. Type of assay: cell-based. The note with it: ATCC27853, 35±1° C., 18±2 h, concentration which completely inhibited growth. As to the method: A. Minimum Inhibitory Concentration (MIC)
Minimum Inhibitory Concentrations (MICS) were determined for Escherichia coli (American Type Culture Collection (ATCC) 25922) and Pseudomonas aeruginosa (ATCC 27853) in accordance with the Clinical and Laboratory Standards Institute (CLSI). Serial, one-half dilutions of compounds were prepared in 96-well dilution blocks in cation-adjusted Mueller-Hinton Broth (MBH)+2% DMSO and transferred to 96-well assay plates in duplicate. Cell suspensions of E. coli and P. aeruginosa were prepared in MHB and added to each well at concentrations of approximately 1.2×10^6 and 3.3×10^6 colony-forming-units per milliliter (cfu/mL), respectively. The inoculated plates were incubated at 35±1° C. for 18±2 h. At the completion of incubation the wells of each plate were evaluated visually for the presence of growth. […] In addition to visual evaluation, optical densities were determined using a Tecan Infinite M200 microplate reader measuring absorbance at 600 nm.
Usually MIC stands for the smallest concentration in the dilution series that meets the test's criterion for growth inhibition. Higher therefore signals weaker potency. `NNC(=O)c1cc(-c2ccc(C#Cc3ccc(C(=O)N4CCCC[C@H]4C(=O)O)cc3Cl)cc2)nc2ccncc12` [Example 202, (S)-1-(3-chloro-4-((4-(4-(hydrazinecarbonyl)-1,6-naphthyridin-2-yl)phenyl)ethynyl)benzoyl)piperidine-2-carboxylic acid hydrochloride]: the MIC was determined as 128 µg/mL.

The next assay addresses T1, LpxC (Pseudomonas aeruginosa, UniProt P47205).
T1 sequence (P47205 1-303): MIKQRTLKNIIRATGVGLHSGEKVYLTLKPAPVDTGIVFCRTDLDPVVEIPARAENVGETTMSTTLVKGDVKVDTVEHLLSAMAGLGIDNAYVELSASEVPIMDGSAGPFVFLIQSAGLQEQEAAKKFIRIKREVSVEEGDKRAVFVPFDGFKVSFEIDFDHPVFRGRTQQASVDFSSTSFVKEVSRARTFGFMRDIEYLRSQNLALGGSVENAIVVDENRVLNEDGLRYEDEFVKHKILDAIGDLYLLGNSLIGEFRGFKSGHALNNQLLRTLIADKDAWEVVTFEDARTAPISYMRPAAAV
Nature of the assay: Inhibition of LpxC Enzyme. Type of assay: biochemical. The note with it: LpxC enzyme is pseudomonas construct. As to the method: [The source words this procedure for another target and reports this target under the same test.] A. Inhibition of LpxC Enzyme
Test compounds were dissolved in 100% DMSO @ 10 mM. Then a series of dilutions were done with 100% DMSO, these were the first intermediate dilutions. Individual 100% DMSO dilutions were diluted independently to another intermediate dilution using assay buffer (bringing the DMSO concentration to 5%). Finally, 10 μl of all these 5% intermediate dilutions were used directly in the 50 μl reaction, making the final DMSO testing concentration at 1%. The enzymatic reactions were conducted in duplicate at room temperature for 1 hour in a 50 μL mixture containing MMP-2 assay buffer, 1 μM Mca-PLGLDpaAR, 10 uL MPP-2 enzyme (1.8 ng) and 10 μL of a test compound. All the reactions were conducted using 10 μl MMP-2 assay buffer in place of enzyme, to detect just the background fluorescence from the compound. After enzymatic reactions, fluorescence intensity was measured at an excitation of 328 nm and an emission of 393 nm using a Tecan Infinite M1000™ microplate reader.
Broadly, the pIC50 is the negative decadic logarithm of the IC50, by convention in mol/L. Read a high pIC50 as a low IC50. On to `NNC(=O)c1cc(-c2ccc(-c3ccc(-c4cc(CO)on4)cc3)cc2)nc2cc(NS(=O)(=O)CC(=O)O)ncc12` [Example 328, 2-(N-(4-(hydrazinecarbonyl)-2-(4′-(5-(hydroxymethyl)isoxazol-3-yl)-[1,1′-biphenyl]-4-yl)-1,6-naphthyridin-7-yl)sulfamoyl)acetic acid hydrochloride], for which the pIC50 was 8.70. As for `CCC(C)C(NC(=O)c1ccc(C#Cc2ccc(-c3cc(C(=O)NN)c4cnccc4n3)cc2)cc1)C(=O)O` (racemic) [Example 172, 2-(4-((4-(4-(hydrazinecarbonyl)-1,6-naphthyridin-2-yl)phenyl)ethynyl)benzamido)-3-methylpentanoic acid], the pIC50 is 7.74. On the same count and under the same terms, for `NNC(=O)c1cc(-c2ccc(-c3ccc(-c4cc(C(=O)N5CCCCC5C(=O)O)on4)cc3)cc2)nc2ccncc12` (racemic) [Example 115, 1-(3-(4′-(4-(hydrazinecarbonyl)-1,6-naphthyridin-2-yl)-[1,1′-biphenyl]-4-yl)isoxazole-5-carbonyl)piperidine-2-carboxylic acid] the value was 8.10. Molecule `NNC(=O)c1cc(-c2ccc(-c3ccc(OCCNS(=O)(=O)C(F)(F)F)cc3)cc2)nc2ccncc12` [Example 101] gave a pIC50 of 8.22. The same measure, in the same setting: for `CS(=O)(=O)Nc1cc2nc(-c3ccc(C#Cc4ccc(C(=O)N5CCCC[C@H]5C(=O)O)cc4Cl)cc3)cc(C(=O)NN)c2cn1` [Example 309, (S)-1-(3-chloro-(4-((4-(4-(hydrazinecarbonyl)-7-(methylsulfonamido)-1,6-naphthyridin-2-yl)phenyl)ethynyl)benzoyl)piperidine-2-carboxylic acid hydrochloride] the value was 8.70; for `O=C(O)CCCOc1ccc(-c2ccc(-c3cc(N4C(=O)CNC4=S)c4cnccc4n3)cc2)cc1` [Example 83, 4-((4′-(4-(5-oxo-2-thioxoimidazolidin-1-yl)-1,6-naphthyridin-2-yl)-[1,1′-biphenyl]-4-yl)oxy)butanoic acid], 8.40; for `O=C(NO)[C@@H](Cc1ccc2ccccc2c1)NS(=O)(=O)c1ccc2ccccc2c1` [BB-78485], 7.70. Still for that read-out and setting: for `CS(=O)(=O)Nc1cc2nc(-c3ccc(-c4ccc(-c5cc(CO)on5)cc4)cc3)cc(C(=O)NN)c2cn1` [Example 327, N-(4-(hydrazinecarbonyl)-2-(4′-(5-(hydroxymethyl)isoxazol-3-yl)-[1,1′-biphenyl]-4-yl)-1,6-naphthyridin-7-yl) methanesulfonamide hydrochloride] the value was 8.30; for `CS(=O)(=O)NCc1cc(-c2ccc(-c3ccc(-c4cc(C(=O)NN)c5cnccc5n4)cc3)cc2)no1` [Example 35, N-((3-(4′-(4-(hydrazinecarbonyl)-1,6-naphthyridin-2-yl)-[1,1′-biphenyl]-4-yl)isoxazol-5-yl)methyl)methanesulfonamide], 8.70. For `NNC(=O)c1cc(-c2ccc(C#Cc3ccc(NS(=O)(=O)C(F)(F)F)cc3)cc2)nc2ccncc12` [Example 185, 1,1,1-trifluoro-N-(4-((4-(4-(hydrazinecarbonyl)-1,6-naphthyridin-2-yl)phenyl)ethynyl)phenyl)methanesulfonamide], the pIC50 is 8.30. `NNC(=O)c1cc(-c2ccc(-c3ccc(-c4cc(C(=O)N5CCC[C@@H]5C(=O)O)on4)cc3)cc2)nc2ccncc12` [Example 31, (R)-1-(3-(4′-(4-(hydrazinecarbonyl)-1,6-naphthyridin-2-yl)-[1,1′-biphenyl]-4-yl)isoxazole-5-carbonyl)pyrrolidine-2-carboxylic acid hydrochloride] showed a negative-log IC50 (pIC50) of 8.40. As for `NNC(=O)c1cc(-c2ccc(C#Cc3ccc(C(=O)N4CCCC[C@H]4C(=O)O)cc3Cl)cc2)nc2ccncc12` [Example 202, (S)-1-(3-chloro-4-((4-(4-(hydrazinecarbonyl)-1,6-naphthyridin-2-yl)phenyl)ethynyl)benzoyl)piperidine-2-carboxylic acid hydrochloride], the negative logarithm of the IC50 (pIC50) was 8.70.
